Results: patent US4497806A, “Triorganotin compounds, antifungal and antibacterial compositions containing same, and method of using same” (priority 1983, dated 1985)

Assays:
[1] = system: Myrothecium verrucaria (ATCC 9095); test: Antifungal activity, agar plate growth inhibition; assay type: cell-based; conditions: 14 days
Description: (§1) Dilutions of the sterile solutions were prepared and added to liquified potato dextrose agar (Difco) to yield final concentrations of 100, 10 and 1 μg/ml. The agar, containing the appropriate organotin compound, was poured into sterile petri dishes and allowed to solidify over night. The agar surface was inoculated centrally with a 2 mm^2 portion of the growth from a ten-day-old culture of each fungus of the group consisting of Aspergillus niger, Chaetomium globosum, Cladosporium carpophilum, Fusarium moniliforme, Myrotheium verrucaria, Penicillium notatum, Rhizopus stolonifer, Trichoderma viride and Trichophyton mentagrophytes, or from a two-day-old culture of Saccharomyces cerevisiae. Inoculated plates were incubated for 14 days and observations of growth inhibition were made by measuring the diameters of the colonies present on the agar surface.
(§2) A solvent was included in all evaluations, as were growth controls for all fungal species.
(§3) The following compounds were tested for comparative purposes: [drawing 6] These compounds were tested for antifungal activity in the same manner as the triorganotin 5-nitro-2-furoates of the present invention.

[2] = system: Fusarium moniliforme (ATCC 10052); test: Antifungal activity, agar plate growth inhibition; assay type: cell-based; conditions: 14 days
Description: as §1, §2, §3

[3] = system: Trichoderma viride (ATCC 8678); test: Antifungal activity, agar plate growth inhibition; assay type: cell-based; conditions: 14 days
Description: as §1, §2, §3

[4] = system: Rhizopus stolonifer (ATCC 10404); test: Antifungal activity, agar plate growth inhibition; assay type: cell-based; conditions: 14 days
Description: as §1, §2, §3

[5] = system: Chaetomium globosum (ATCC 6205); test: Antifungal activity, agar plate growth inhibition; assay type: cell-based; conditions: 14 days
Description: as §1, §2, §3

[6] = system: Trichophyton mentagrophytes (ATCC 9129); test: Antifungal activity, agar plate growth inhibition; assay type: cell-based; conditions: 14 days
Description: as §1, §2, §3

[7] = system: Aspergillus niger (ATCC 12845); test: Antifungal activity, agar plate growth inhibition; assay type: cell-based; conditions: 14 days
Description: as §1, §2, §3

[8] = system: Saccharomyces cerevisiae (ATCC 9896); test: Antifungal activity, agar plate growth inhibition; assay type: cell-based; conditions: 14 days
Description: as §1, §2, §3

[9] = system: Penicillium notatum (ATCC 9179); test: Antifungal activity, agar plate growth inhibition; assay type: cell-based; conditions: 14 days
Description: as §1, §2, §3

Bacillus subtilis = test: Antibacterial activity, agar growth inhibition; assay type: cell-based; design: key: -: no inhibition of growth; +: partial inhibition; 2+: complete inhibition; conditions: Gram-positive; 1 μg/ml; 24 hours at 37° C.
Description: (§4) The antibacterial activity of Compounds A-E was investigated by means of incorporating the compounds into sterile tryptic soy agar (Difco) at levels of 100, 10, and 1 μg/ml. The agar was also […] with a 1:100 dilution of an 18-hour old culture of the desired bacterial species in sterile distilled water. The plates were incubated for 24 hours at 37° C. with each bacterial strain. Observations of bacterial growth inhibition were made following the appropriate incubation period.
(§5) A solvent control was included in all evaluations, as were growth controls for all bacteria species.
(§6) Comparative compounds 1-5 above were employed for comparison purposes. These compounds were tested for antibacterial activity in the same manner as the triorganotin 5-nitro-2-furoates of the present invention.
(§7) All of the bacteria tested were obtained from the culture collection of the Department of Biological Sciences, St. John's University.
(§8) The ability of Compound B to inhibit the growth of other Gram-positive bacteria, using the same test procedures as described for the antibacterial activity determined in Table III above, is illustrated in Table IV below.

[10] = system: Cladosporium carpophilium (ATCC 12117); test: Antifungal activity, agar plate growth inhibition; assay type: cell-based, Cladosporium carpophilum; conditions: 14 days
Description: as §1, §2, §3

Escherichia coli = test: Antibacterial activity, agar growth inhibition; assay type: cell-based; conditions: for growth inhibition: Gram-negative, 24 hours at 37° C.
Description: (§9) The agar was also needed with a 1:100 dilution of an 18-hour old culture of the desired bacterial species in sterile distilled water. The plates were incubated for 24 hours at 37° C. with each bacterial strain. Observations of bacterial growth inhibition were made following the appropriate incubation period.
as §5
(§10) These compounds were tested for antibacterial activity in the same manner as the triorganotin 5-nitro-2-furoates of the present invention.
as §7

test fungi = test: Antifungal activity, summary over the 10 test fungi; assay type: cell-based
Description: as §1, §2, §3

Staphylococcus aureus = test: Antibacterial activity, agar growth inhibition; assay type: cell-based
Description: as §4, §5, §6, §7, §8

Bacillus megaterium = test: Antibacterial activity, agar growth inhibition; assay type: cell-based; conditions: Gram-positive
Description: as §9, §5, §10, §7

Pseudomonas aeruginosa = test: Antibacterial activity, agar growth inhibition; assay type: cell-based; conditions: Gram-negative, 24 hours at 37° C.
Description: as §9, §5, §10, §7

For CCOC(=Nc1ccccc1)[S][Sn]([c]1ccccc1)([c]1ccccc1)[c]1ccccc1 [compound 4, Ethyl N--phenyl-S--(triphenylstannyl)iso-thiocarbamate, reference compound], the growth inhibition ([1]; 1 μg/ml) was “+”, the growth inhibition ([1]; 10 μg/ml) was “+” and the growth inhibition ([1]; 100 μg/ml) was “+”. For the same compound, the growth inhibition ([2]; 1 μg/ml) was “+”, the growth inhibition ([2]; 10 μg/ml) was “+” and the growth inhibition ([2]; 100 μg/ml) was “+”. The growth inhibition ([3]; 1 μg/ml) was “-”, the growth inhibition ([3]; 10 μg/ml) was “+” and the growth inhibition ([3]; 100 μg/ml) was “+”. For the same compound, the growth inhibition ([4]; 1 μg/ml) was “+”, the growth inhibition ([4]; 10 μg/ml) was “+” and the growth inhibition ([4]; 100 μg/ml) was “+”. For the same compound, the growth inhibition ([5]; 1 μg/ml) was “+”, the growth inhibition ([5]; 10 μg/ml) was “+” and the growth inhibition ([5]; 100 μg/ml) was 2+. The growth inhibition ([6]; 1 μg/ml) was “+”, the growth inhibition ([6]; 10 μg/ml) was 2+ and the growth inhibition ([6]; 100 μg/ml) was 2+. For the same compound, the growth inhibition ([7]; 1 μg/ml) was “+”, the growth inhibition ([7]; 10 μg/ml) was “+” and the growth inhibition ([7]; 100 μg/ml) was “+”. For the same compound, the growth inhibition ([8]; 1 μg/ml) was “-”, the growth inhibition ([8]; 10 μg/ml) was “+” and the growth inhibition ([8]; 100 μg/ml) was “+”. For the same compound, the growth inhibition ([9]; 1 μg/ml) was “+”, the growth inhibition ([9]; 10 μg/ml) was “+” and the growth inhibition ([9]; 100 μg/ml) was “+”. For the same compound, the growth inhibition (Bacillus subtilis) was “-”, the growth inhibition ([10]; 1 μg/ml) was “+” and the growth inhibition ([10]; 10 μg/ml) was “+”. The growth inhibition ([10]; 100 μg/ml) was 2+, the “growth inhibition (in words)” value (Escherichia coli; 100 μg/ml) was “partially” and the growth inhibition (Escherichia coli; 1 μg/ml) was “-”. The growth inhibition (Escherichia coli; 10 μg/ml) was “-”.
In the case of “Triphenyltin 5-nitro-2-furoate [Compound A]”, the growth inhibition ([1]; 1 μg/ml) is reported as “+”, the growth inhibition ([1]; 10 μg/ml) is reported as 2+ and the growth inhibition ([1]; 100 μg/ml) is reported as 2+. For the same compound, the growth inhibition ([2]; 1 μg/ml) was “+”, the growth inhibition ([2]; 10 μg/ml) was “+” and the growth inhibition ([2]; 100 μg/ml) was “+”. The growth inhibition ([3]; 1 μg/ml) was “+”, the growth inhibition ([3]; 10 μg/ml) was “+” and the growth inhibition ([3]; 100 μg/ml) was “+”. For the same compound, the growth inhibition ([4]; 1 μg/ml) was “+”, the growth inhibition ([4]; 10 μg/ml) was “+” and the growth inhibition ([4]; 100 μg/ml) was “+”. The growth inhibition ([5]; 1 μg/ml) was “+”, the growth inhibition ([5]; 10 μg/ml) was “+” and the growth inhibition ([5]; 100 μg/ml) was “+”. For the same compound, the growth inhibition ([6]; 1 μg/ml) was “+”, the growth inhibition ([6]; 10 μg/ml) was 2+ and the growth inhibition ([6]; 100 μg/ml) was 2+. For the same compound, the growth inhibition ([7]; 1 μg/ml) was “+”, the growth inhibition ([7]; 10 μg/ml) was 2+ and the growth inhibition ([7]; 100 μg/ml) was 2+. The growth inhibition ([8]; 1 μg/ml) was “-”, the growth inhibition ([8]; 10 μg/ml) was “+” and the growth inhibition ([8]; 100 μg/ml) was “+”. For the same compound, the growth inhibition ([9]; 1 μg/ml) was “+”, the growth inhibition ([9]; 10 μg/ml) was 2+ and the growth inhibition ([9]; 100 μg/ml) was 2+. For the same compound, the “partial growth inhibition of test fungi (in words)” value (test fungi; 1 μg/ml) was “partially inhibiting the growth of all of the test fungi, except Saccharomyces cerevisiae”, the “number of test fungi with growth completely inhibited” value (test fungi; 10 μg/ml) was 5 of the 10 test fungi and the “antifungal activity, rank among the triorganotin 5-nitro-2-furoates” value (test fungi; among Compounds A-E) was “second best antifungal agent”. The growth inhibition ([10]; 1 μg/ml) was 2+, the growth inhibition ([10]; 10 μg/ml) was 2+ and the growth inhibition ([10]; 100 μg/ml) was 2+. The “minimum concentration for complete growth inhibition” value (Staphylococcus aureus; Gram-positive) was 1 µg/mL, the “activity relative to Comparative Compounds 2, 4 and 5” value (Staphylococcus aureus; towards Staphylococcus aureus) was “identical” and the “minimum concentration for complete growth inhibition” value (Bacillus megaterium) was 1 µg/mL. The growth inhibition (Escherichia coli; 1 μg/ml) was “-”, the growth inhibition (Escherichia coli; 10 μg/ml) was “-” and the growth inhibition (Escherichia coli; 100 μg/ml) was “-”. For the same compound, the growth inhibition (Pseudomonas aeruginosa; 1 μg/ml) was “-”, the growth inhibition (Pseudomonas aeruginosa; 10 μg/ml) was “-” and the growth inhibition (Pseudomonas aeruginosa; 100 μg/ml) was “-”.
